Laboratory results as given in patent publication US9796719B2, “Compounds and pharmaceutical compositions thereof for the treatment of inflammatory disorders” (GALAPAGOS NV, priority 2013, dated 2017).
Counter-ions that a name gives are not always drawn.

Each compound was assayed against hENPP2 (UniProtKB/SwissProt Sequence ref Q13822) (Homo sapiens (Human), UniProt Q13822) (assay: LPC hENPP2 assay (choline release, LPC as substrate)).
Type: biochemical
Method in brief: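 Choline released from LPC by ENPP2 is quantified after stopping with stop-developer containing 0.6 U/mL choline oxidase, 0.6 U/mL peroxidase, 1.8 mM TOOS, 1.2 mM amino-antipyrine and 20 mM EGTA. Quinoneimine dye read at 555 nm after 30 min at room temperature.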

IC50 [nM]	SMILES
> 1000	CCc1nc2ccc(C3CCN(CC(=O)NC)CC3)nn2c1N(C)c1nc(-c2ccc(F)cc2C#N)c(C)s1 [Cpd 211, 2-(4-(3-((4-(2-cyano-4-fluorophenyl)-5-methylthiazol-2-yl)(methyl)amino)-2-ethylimidazo[1,2-b]pyridazin-6-yl)piperidin-l-yl)-N-methylacetamide]
> 1000	CCc1nc2ccc(N3CC(CO)C3)nn2c1N(C)c1nc(-c2ccc(F)cc2)cs1 [Cpd 153, (1-(2-ethyl-3-((4-(4-fluorophenyl)thiazol-2-yl)(methyl)amino)imidazo[1,2-b]pyridazin-6-yl)azetidin-3-yl)methanol]
> 1000	CCc1nc2ccc(N3CCC4(CCOCC4)C3)nn2c1N(C)c1nc(-c2ccc(F)cc2)cs1 [Cpd 117, N-(2-ethyl-6-(8-oxa-2-azaspiro[4.5]decan-2-yl)imidazo[1,2-b]pyridazin-3-yl)-4-(4-fluorophenyl)-N-methylthiazol-2-amine]
> 1000	CCc1nc2ccc(N3CC[C@H](C#N)C3)nn2c1N(C)c1nc(-c2ccc(F)cc2)cs1 [Cpd 128, (S)-1-(2-ethyl-3-((4-(4-fluorophenyl)thiazol-2-yl)(methyl)amino)imidazo[1,2-b]pyridazin-6-yl)pyrrolidine-3-carbonitrile]
> 1000	CCc1nc2cnc(N3CCNCC3)cn2c1N(C)c1nc(-c2ccc(F)cc2)c(C#N)s1 [Compound 1, 2-((2-ethyl-6-(piperazin-1-yl)imidazo[1,2-a]pyrazin-3-yl)(methyl)amino)-4-(4-fluorophenyl)thiazole-5-carbonitrile]
> 1000	CCc1nc2ccc(N3CCN(S(C)(=O)=O)[C@H](COC)C3)nn2c1N(C)c1nc(-c2ccc(F)cc2)cs1 [Compound 62, (S)—N-(2-ethyl-6-(3-(methoxymethyl)-4-(methylsulfonyl)piperazin-1-yl)imidazo[1,2-b]pyridazin-3-yl)-4-(4-fluorophenyl)-N-methylthiazol-2-amine]
> 1000	CCc1nc2ccc(N3CCC(CNC(=O)N(C)C)CC3)nn2c1N(C)c1nc(-c2ccc(F)cc2)cs1 [Cpd 106, 3-((l-(2-ethyl-3-((4-(4-fluorophenyl)thiazol-2-yl)(methyl)amino)imidazo[1,2-b]pyridazin-6-yl)piperidin-4-yl)methyl)-1,1-dimethylurea]
100 to 500	CCc1nc2ccc(N3CCN(S(C)(=O)=O)[C@H](CO)C3)nn2c1N(C)c1nc(-c2ccc(F)cc2)c(CO)s1 [Cpd 68, (S)-(4-(2-ethyl-3-((4-(4-fluorophenyl)-5-(hydroxymethyl)thiazol-2-yl)(methyl)amino)imidazo[1,2-b]pyridazin-6-yl)-1-(methylsulfonyl)piperazin-2-yl)methanol]
0.01 to 100	CCc1nc2ccc(N3CCC(N4CCN(C(C)=O)CC4)C3)nn2c1N(C)c1nc(-c2ccc(F)cc2)c(C#N)s1 (stereo not shown) [Cpd 180, 2-((6-(3-(4-acetoylpiperazin-1-yl)pyrrolidin-1-yl)-2-ethylimidazo[1,2-b]pyridazin-3-yl)(methyl)amino)-4-(4-fluorophenyl) thiazole-5-carbonitrile]
> 1000	CCc1nc2ccc(N3C[C@H]4C[C@H]3CN4S(C)(=O)=O)nn2c1N(C)c1nc(-c2ccc(F)cc2)cs1 [Cpd 76, N-(2-ethyl-6-((1S,4R)-5-(methylsulfonyl)-2,5-diazabicyclo[2.2.1]heptan-2-yl)imidazo[1,2-b]pyridazin-3-yl)-4-(4-fluorophenyl)-N-methylthiazol-2-amine]
0.01 to 100	CCc1nc2ccc(N3CC[C@@H](NCC(=O)N4CC(O)C4)C3)nn2c1N(C)c1nc(-c2ccc(F)cc2)c(C#N)s1 [Cpd 176, (R)-2-((2-ethyl-6-(3-(2-(3-hydroxyazetidin-1-yl)-2-oxoethylamino)pyrrolidin-1-yl)imidazo[1,2-b]pyridazin-3-yl)(methyl)amino)-4-(4-fluorophenyl) thiazole-5-carbonitrile]
> 1000	CCc1nc2ccc(N3C[C@H]4C[C@H]3CN4C(C)=O)nn2c1N(C)c1nc(-c2ccc(F)cc2)cs1 [Cpd 75, 1-((1R,4S)-5-(2-ethyl-3-((4-(4-fluorophenyl)thiazol-2-yl)(methyl)amino)imidazo[1,2-b]pyridazin-6-yl)-2,5-diazabicyclo[2.2.1]heptan-2-yl)ethanone]
100 to 500	CCc1nc2ccc(N3CCC(O)(CNC(=O)C(C)C)C3)nn2c1N(C)c1nc(-c2ccc(F)cc2)c(C#N)s1 (stereo not shown) [Cpd 170, N-((1-(3-((5-cyano-4-(4-fluorophenyl)thiazol-2-yl)(methyl)amino)-2-ethylimidazo[1,2-b]pyridazin-6-yl)-3-hydroxypyrrolidin-3-yl)methyl) isobutyramide]
> 1000	CCc1nc2ccc(N3CCC(NC(=O)C4CCN(C(=O)OC(C)(C)C)CC4)CC3)nn2c1N(C)c1nc(-c2ccc(F)cc2)cs1 [Cpd 87, tert-butyl 4-(1-(2-ethyl-3-((4-(4-fluorophenyl)thiazol-2-yl)(methyl)amino)imidazo[1,2-b]pyridazin-6-yl)piperidin-4-ylcarbamoyl) piperidine-1-carboxylate]
> 1000	CCc1nc2ccc(N3CCC4(CC(=O)NC4=O)C3)nn2c1N(C)c1nc(-c2ccc(F)cc2)cs1 (stereo not shown) [Cpd 121, 7-(2-ethyl-3-((4-(4-fluorophenyl)thiazol-2-yl)(methyl)amino)imidazo[1,2-b]pyridazin-6-yl)-2,7-diazaspiro[4.4] nonane-1,3-dione]
> 1000	CCc1nc2ccc(N3CCC(OC=O)C3)nn2c1N(C)c1nc(-c2ccc(F)cc2)cs1 (stereo not shown) [Compound 130, 1-(2-ethyl-3-((4-(4-fluorophenyl)thiazol-2-yl)(methyl)amino)imidazo[1,2-b]pyridazin-6-yl)pyrrolidin-3-yl formate]
> 1000	CCc1nc2ccc(N3CCCC4(CN(C)C(=O)O4)C3)nn2c1N(C)c1nc(-c2ccc(F)cc2)c(C#N)s1 (stereo not shown) [Cpd 163, 2-((2-ethyl-6-(3-methyl-2-oxo-1-oxa-3,7-diazaspiro[4.5]decan-7-yl)imidazo [1,2-b]pyridazin-3-yl)(methyl)amino)-4-(4-fluorophenyl) thiazole-5-carbonitrile]
> 1000	CCc1nc2ccc(N3CCC(N4CCCCC4)CC3)nn2c1N(C)c1nc(-c2ccc(F)cc2)cs1 [Cpd 111, N-(6-(1,4′-bipiperidin-1′-yl)-2-ethylimidazo[1,2-b]pyridazin-3-yl)-4-(4-fluorophenyl)-N-methylthiazol-2-amine]
100 to 500	CCc1nc2ccc(N3CC(C(=O)N4CCC(O)C4)C3)nn2c1N(C)c1nc(-c2ccc(F)cc2)c(C#N)s1 (stereo not shown) [Cpd 192, 2-((2-ethyl-6-(3-(3-hydroxy-pyrrolidine-1-carbonyl)azetidin-1-yl)imidazo[1,2-b]pyridazin-3-yl)(methyl)amino)-4-(4-fluorophenyl) thiazole-5-carbonitrile]
100 to 500	CCc1nc2ccc(N3CCN(CC(=O)N4CCCC4C)CC3)nn2c1N(C)c1nc(-c2ccc(F)cc2)cs1 (stereo not shown) [Cpd 28, 2-(4-(2-ethyl-3-((4-(4-fluorophenyl)thiazol-2-yl)(methyl)amino)imidazo[1,2-b]pyridazin-6-yl)piperazin-1-yl)-1-(2-methylpyrrolidin-1-yl)ethanone]
500 to 1000	CCc1nc2ccc(N3CCC(CO)C3)nn2c1N(C)c1nc(-c2ccc(F)cc2)c(CO)s1 (stereo not shown) [Compound 144, (1-(2-ethyl-3-((4-(4-fluorophenyl)-5-(hydroxymethyl)thiazol-2-yl)(methyl)amino)imidazo[, 2-b]pyridazin-6-yl)pyrrolidin-3-yl)methanol]
> 1000	CCc1nc2ccc(N3CCC[C@H]3C(=O)O)nn2c1N(C)c1nc(-c2ccc(F)cc2)cs1 [Compound 138, (S)-1-(2-ethyl-3-((4-(4-fluorophenyl)thiazol-2-yl)(methyl)amino)imidazo[1,2-b]pyridazin-6-yl)pyrrolidine-2-carboxylic acid]
> 1000	CCc1nc2ccc(N3CCC(C(=O)N4CCOCC4)C3)nn2c1N(C)c1nc(-c2ccc(F)cc2)cs1 (stereo not shown) [Cpd 141, (1-(2-ethyl-3-((4-(4-fluorophenyl)thiazol-2-yl)(methyl)amino)imidazo[1,2-b]pyridazin-6-yl)pyrrolidin-3-yl)(morpholino) methanone]
100 to 500	CCc1nc2ccc(C3CCN(CC(=O)N4CC(O)C4)CC3)nn2c1N(C)c1nc(-c2ccc(F)cc2C#N)cs1 [Cpd 207, 2-(2-((2-ethyl-6-(1-(2-(3-hydroxyazetidin-1-yl)-2-oxoethyl)piperidin-4-yl)imidazo[1,2-b]pyridazin-3-yl)(methyl)amino)thiazol-4-yl)-5-fluorobenzonitrile]
> 1000	CCc1nc2cnc(N3CCN(CC(=O)N4CC(O)C4)CC3)cn2c1N(C)c1cccc(-c2ccc(F)cc2C#N)n1 [Cpd 17, 2-(6-((2-ethyl-6-(4-(2-(3-hydroxyazetidin-1-yl)-2-oxoethyl)piperazin-1-yl)imidazo[1,2-a]pyrazin-3-yl)(methyl)amino)pyridin-2-yl)-5-fluorobenzonitrile]
> 1000	CCc1nc2cnc(N3CCN(CC(=O)N4CC(O)C4)CC3)cn2c1N(C)c1nccc(-c2ccc(F)cc2C#N)n1 [Cpd 18, 2-(2-((2-ethyl-6-(4-(2-(3-hydroxyazetidin-1-yl)-2-oxoethyl)piperazin-1-yl)imidazo[1,2-a]pyrazin-3-yl)(methyl)amino)pyrimidin-4-yl)-5-fluorobenzonitrile]
0.01 to 100	CCc1nc2ccc(N3CCC(O)(CNC(C)=O)C3)nn2c1N(C)c1nc(-c2ccc(F)cc2)c(C#N)s1 (stereo not shown) [Cpd 169, N-((1-(3-((5-cyano-4-(4-fluorophenyl)thiazol-2-yl)(methyl)amino)-2-ethylimidazo[1,2-b]pyridazin-6-yl)-3-hydroxypyrrolidin-3-yl)methyl)acetamide]
> 1000	CCc1nc2ccc(N3CCN(C(=O)OC(C)(C)C)[C@H](CO)C3)nn2c1N(C)c1nc(-c2ccc(F)cc2)cs1 [Cpd 59, (S)-tert-butyl 4-(2-ethyl-3-((4-(4-fluorophenyl)thiazol-2-yl)(methyl)amino)imidazo[1,2-b]pyridazin-6-yl)-2-(hydroxymethyl) piperazine-1-carboxylate]
